Reference: patent US11292801B2, “Calpain modulators and therapeutic uses thereof” (Blade Therapeutics, Inc., priority 2016, dated 2022)

What was measured:
Human Calpain 1/NS1 = biological target: T1, Human Calpain 1/NS1 (Homo sapiens, UniProt P07384); assay: Biochemical inhibition of calpain 1, continuous fluorescence (FRET substrate) assay; details: mean, read-out: Human Calpain 1/NS1 IC50 (nM)_MEAN
T1 sequence (P07384 1-714): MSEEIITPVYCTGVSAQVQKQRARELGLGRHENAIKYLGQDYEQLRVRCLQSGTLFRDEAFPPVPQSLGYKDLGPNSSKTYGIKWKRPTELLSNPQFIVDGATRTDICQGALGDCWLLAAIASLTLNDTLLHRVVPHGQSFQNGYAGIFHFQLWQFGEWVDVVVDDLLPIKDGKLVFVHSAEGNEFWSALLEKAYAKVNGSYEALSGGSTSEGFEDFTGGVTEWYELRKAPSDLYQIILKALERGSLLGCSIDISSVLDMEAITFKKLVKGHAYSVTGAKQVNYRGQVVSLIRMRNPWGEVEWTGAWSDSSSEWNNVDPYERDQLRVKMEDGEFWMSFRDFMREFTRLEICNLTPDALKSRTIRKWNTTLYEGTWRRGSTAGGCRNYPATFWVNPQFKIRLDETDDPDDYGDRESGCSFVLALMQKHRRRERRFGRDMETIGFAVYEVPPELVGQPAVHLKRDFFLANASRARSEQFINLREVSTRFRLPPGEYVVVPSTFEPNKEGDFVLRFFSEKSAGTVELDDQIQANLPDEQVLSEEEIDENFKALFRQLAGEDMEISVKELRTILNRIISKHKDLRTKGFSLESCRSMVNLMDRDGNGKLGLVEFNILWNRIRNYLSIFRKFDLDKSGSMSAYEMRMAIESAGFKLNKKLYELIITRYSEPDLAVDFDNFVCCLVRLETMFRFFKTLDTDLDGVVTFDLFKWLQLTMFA
T1 sequence (P04632 1-268 partner): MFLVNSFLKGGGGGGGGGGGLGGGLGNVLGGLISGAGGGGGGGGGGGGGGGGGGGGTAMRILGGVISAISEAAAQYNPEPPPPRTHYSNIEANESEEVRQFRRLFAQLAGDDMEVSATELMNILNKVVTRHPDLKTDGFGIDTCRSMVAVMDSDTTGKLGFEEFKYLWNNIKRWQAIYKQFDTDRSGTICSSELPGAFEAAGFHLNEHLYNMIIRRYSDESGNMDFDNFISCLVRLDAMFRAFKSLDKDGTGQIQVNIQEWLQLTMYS
Method in brief: (§1)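 IC50 values come from 4-parameter fits of progress-curve rates (1-5 min slopes) against log inhibitor concentration. Calpain and inhibitor premixed at ambient 25C in Tris pH ~7.5/NaCl/DTT buffer, then CaCl2 and FRET substrate added to activate; 5-FAM fluorescence (ex 490/em 520) followed 10 min.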

Human Calpain 2/NS1 = biological target: T2, Human Calpain 2/NS1 (Homo sapiens, UniProt P17655); assay: Biochemical inhibition of calpain 2, continuous fluorescence (FRET substrate) assay; details: mean, read-out: Human Calpain 2/NS1 IC50 (nM)_MEAN
T2 sequence (P17655 1-700): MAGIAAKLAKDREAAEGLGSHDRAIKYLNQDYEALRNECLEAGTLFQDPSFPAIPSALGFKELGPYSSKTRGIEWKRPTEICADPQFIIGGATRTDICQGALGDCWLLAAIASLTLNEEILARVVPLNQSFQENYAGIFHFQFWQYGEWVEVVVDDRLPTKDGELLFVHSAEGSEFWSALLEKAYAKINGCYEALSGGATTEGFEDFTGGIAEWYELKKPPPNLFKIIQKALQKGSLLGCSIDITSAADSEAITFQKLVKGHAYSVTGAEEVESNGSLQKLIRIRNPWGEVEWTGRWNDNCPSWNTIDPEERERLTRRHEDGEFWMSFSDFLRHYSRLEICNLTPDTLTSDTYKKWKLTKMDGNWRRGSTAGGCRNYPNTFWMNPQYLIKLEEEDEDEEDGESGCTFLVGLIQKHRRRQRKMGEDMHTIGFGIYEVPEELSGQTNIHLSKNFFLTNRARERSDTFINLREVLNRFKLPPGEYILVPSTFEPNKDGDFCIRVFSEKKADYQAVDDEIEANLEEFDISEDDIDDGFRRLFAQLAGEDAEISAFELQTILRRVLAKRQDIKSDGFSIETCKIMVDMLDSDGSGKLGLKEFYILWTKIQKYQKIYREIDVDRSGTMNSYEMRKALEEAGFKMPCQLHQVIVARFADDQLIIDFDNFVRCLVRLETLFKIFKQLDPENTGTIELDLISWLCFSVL
T2 sequence (P04632 1-268 partner): T1 sequence (P04632 1-268 partner)
Method in brief: as §1

Human Calpain 9/NS1 = biological target: T3, Human Calpain 9/NS1 (Homo sapiens, UniProt O14815); assay: Biochemical inhibition of calpain 9, continuous fluorescence (FRET substrate) assay; details: mean, read-out: Human Calpain 9/NS1 IC50 (nM)_MEAN
T3 sequence (O14815 1-690): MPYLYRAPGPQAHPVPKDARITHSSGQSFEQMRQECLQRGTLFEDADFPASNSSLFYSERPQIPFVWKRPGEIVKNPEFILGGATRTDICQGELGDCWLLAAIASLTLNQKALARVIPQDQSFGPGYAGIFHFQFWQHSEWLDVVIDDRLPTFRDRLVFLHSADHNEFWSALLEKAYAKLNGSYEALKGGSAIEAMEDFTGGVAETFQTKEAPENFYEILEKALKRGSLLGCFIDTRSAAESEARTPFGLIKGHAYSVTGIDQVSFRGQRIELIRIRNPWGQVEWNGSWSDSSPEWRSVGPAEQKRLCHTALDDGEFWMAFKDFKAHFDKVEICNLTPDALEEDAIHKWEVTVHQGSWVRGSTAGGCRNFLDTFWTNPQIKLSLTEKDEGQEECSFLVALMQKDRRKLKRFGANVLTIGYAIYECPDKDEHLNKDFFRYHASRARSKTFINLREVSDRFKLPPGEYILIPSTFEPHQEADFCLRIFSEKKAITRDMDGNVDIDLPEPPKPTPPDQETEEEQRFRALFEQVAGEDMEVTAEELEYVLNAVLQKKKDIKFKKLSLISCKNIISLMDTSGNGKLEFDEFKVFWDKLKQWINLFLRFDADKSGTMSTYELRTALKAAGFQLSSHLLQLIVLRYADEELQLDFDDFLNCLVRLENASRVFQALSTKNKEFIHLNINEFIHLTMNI
T3 sequence (P04632 1-268 partner): T1 sequence (P04632 1-268 partner)
Method in brief: as §1

Row | SMILES | IC50 (Human Calpain 1/NS1) [nM] | IC50 (Human Calpain 2/NS1) [nM] | IC50 (Human Calpain 9/NS1) [nM]
1 | O=C(NCc1ccccc1)C(=O)C1CCCCOCCOCc2ccccc2C(=O)N1 (stereo not drawn) [Compound 97, N-benzyl-2-oxo-2-(12-oxo-1,3,4,6,7,8,9,10,11,12-decahydrobenzo[f][1,4]dioxa[9]azacyclotetradecin-10-yl)acetamide] | > 10000 | > 10000 | < 3000
2 | O=C(NCc1ccc(F)cc1)C(=O)C1CCCCOCCOCc2ccccc2C(=O)N1 (stereo not drawn) [Compound 98, N-(4-fluorobenzyl)-2-oxo-2-(12-oxo-1,3,4,6,7,8,9,10,11,12-decahydrobenzo[f][1,4]dioxa[9]azacyclotetradecin-10-yl)acetamide] | > 10000 | < 3000 | < 3000
3 | COc1ccc(CNC(=O)C(=O)C2CCCCOCCOCc3ccccc3C(=O)N2)c(OC)c1 (stereo not drawn) [Compound 99, N-(2,4-dimethoxybenzyl)-2-oxo-2-(12-oxo-1,3,4,6,7,8,9,10,11,12-decahydrobenzo[f][1,4]dioxa[9]azacyclotetradecin-10-yl)acetamide] | > 10000 | 3000 to 10000 | 3000 to 10000
4 | COc1ccc(CNC(=O)C(=O)C2CCCCOCCOCc3ccccc3C(=O)N2)cc1 (stereo not drawn) [Compound 100, N-(4-methoxybenzyl)-2-oxo-2-(12-oxo-1,3,4,6,7,8,9,10,11,12-decahydrobenzo[f][1,4]dioxa[9]azacyclotetradecin-10-yl)acetamide] | > 10000 | 3000 to 10000 | < 3000
5 | O=C(NCCc1cccnc1)C(=O)C1CCCCOCCOCc2ccccc2C(=O)N1 (stereo not drawn) [Compound 101, 2-Oxo-2-(12-oxo-1,3,4,6,7,8,9,10,11,12-decahydrobenzo[f][1,4]dioxa[9]aza-cyclotetradecin-10-yl)-N-(2-(pyridin-3-yl)ethyl)acetamide] | > 10000 | > 10000 | 3000 to 10000
6 | CCOc1ccccc1CNC(=O)C(=O)C1CCCCOCCOCc2ccccc2C(=O)N1 (stereo not drawn) [Compound 102, N-(2-ethoxybenzyl)-2-oxo-2-(12-oxo-1,3,4,6,7,8,9,10,11,12-decahydrobenzo[f][1,4]dioxa[9]azacyclotetradecin-10-yl)acetamide] | 3000 to 10000 | < 3000 | < 3000
7 | O=C(NCc1cccnc1)C(=O)C1CCCCOCCOCc2ccccc2C(=O)N1 (stereo not drawn) [Compound 103, 2-Oxo-2-(12-oxo-1,3,4,6,7,8,9,10,11,12-decahydrobenzo[f][1,4]dioxa[9]aza-cyclotetradecin-10-yl)-N-(pyridin-3-ylmethyl)acetamide] | > 10000 | > 10000 | < 3000
8 | O=C(NCCc1ccccc1)C(=O)C1CCCCOCCOCc2ccccc2C(=O)N1 (stereo not drawn) [Compound 104, 2-Oxo-2-(12-oxo-1,3,4,6,7,8,9,10,11,12-decahydrobenzo[f][1,4]dioxa[9]aza-cyclotetradecin-10-yl)-N-phenethylacetamide] | > 10000 | 3000 to 10000 | < 3000
9 | CN1CCN(CCCNC(=O)C(=O)C2CCCCOCCOCc3ccccc3C(=O)N2)CC1 (stereo not drawn) [Compound 105, N-(3-(4-methylpiperazin-1-yl)propyl)-2-oxo-2-(12-oxo-1,3,4,6,7,8,9,10,11,12-decahydrobenzo[f][1,4]dioxa[9]azacyclotetradecin-10-yl)acetamide] | > 10000 | > 10000 | < 3000
10 | O=C(NCc1cccc(F)c1)C(=O)C1CCCCOCCOCc2ccccc2C(=O)N1 (stereo not drawn) [Compound 106, N-(3-fluorobenzyl)-2-oxo-2-(12-oxo-1,3,4,6,7,8,9,10,11,12-decahydrobenzo[f][1,4]dioxa[9]azacyclotetradecin-10-yl)acetamide] | > 10000 | 3000 to 10000 | < 3000
11 | O=C(NCc1c(F)cccc1Cl)C(=O)C1CCCCOCCOCc2ccccc2C(=O)N1 (stereo not drawn) [Compound 107] | > 10000 | > 10000 | 3000 to 10000
12 | Cc1ccc(Cl)cc1CNC(=O)C(=O)C1CCCCOCCOCc2ccccc2C(=O)N1 (stereo not drawn) [Compound 108, N-(5-chloro-2-methylbenzyl)-2-oxo-2-(12-oxo-1,3,4,6,7,8,9,10,11,12-decahydrobenzo[f][1,4]dioxa[9]azacyclotetradecin-10-yl)acetamide] | > 10000 | 3000 to 10000 | < 3000
13 | CN(C)CCNC(=O)C(=O)C1CCCCOCCOCc2ccccc2C(=O)N1 (stereo not drawn) [Compound 110, N-(2-(dimethylamino)ethyl)-2-oxo-2-(12-oxo-1,3,4,6,7,8,9,10,11,12-decahydrobenzo[f][1,4]dioxa[9]azacyclotetradecin-10-yl)acetamide] | > 10000 | > 10000 | 3000 to 10000
14 | Cc1cc(C)cc(CNC(=O)C(=O)C2CCCCOCCOCc3ccccc3C(=O)N2)c1 (stereo not drawn) [Compound 111, N-(3,5-dimethylbenzyl)-2-oxo-2-(12-oxo-1,3,4,6,7,8,9,10,11,12-decahydrobenzo[f][1,4]dioxa[9]azacyclotetradecin-10-yl)acetamide] | > 10000 | 3000 to 10000 | < 3000
15 | CCCCc1ccc(CNC(=O)C(=O)C2CCCCOCCOCc3ccccc3C(=O)N2)cc1 (stereo not drawn) [Compound 112, N-(4-butylbenzyl)-2-oxo-2-(12-oxo-1,3,4,6,7,8,9,10,11,12-decahydrobenzo[f][1,4]dioxa[9]azacyclotetradecin-10-yl)acetamide] | > 10000 | > 10000 | < 3000
16 | CN(C)c1ccc(CNC(=O)C(=O)C2CCCCOCCOCc3ccccc3C(=O)N2)cc1 (stereo not drawn) [Compound 113, N-(4-(dimethylamino)benzyl)-2-oxo-2-(12-oxo-1,3,4,6,7,8,9,10,11,12-decahydrobenzo[f][1,4]dioxa[9]azacyclotetradecin-10-yl)acetamide] | > 10000 | > 10000 | < 3000
17 | O=C(NC1CC1)C(=O)C1CCCCOCCOCc2ccccc2C(=O)N1 (stereo not drawn) [Compound 114, N-cyclopropyl-2-oxo-2-(12-oxo-1,3,4,6,7,8,9,10,11,12-decahydrobenzo[f][1,4]dioxa[9]azacyclotetradecin-10-yl)acetamide] | > 10000 | > 10000 | > 10000
